Source: ChEMBL document CHEMBL1833918, “Design and synthesis of potent, orally-active DGAT-1 inhibitors containing a dioxino[2,3-d]pyrimidine core” (Bioorg Med Chem Lett, 2011)
Calls of active or inactive are those of the source. The calls are words filed in the database; no cut-off is given here.

Assays:
Salmonella typhimurium = test: Genotoxicity in Salmonella Typhimurium by Ames test; format: toxicity, organism-based; details: salmonella enterica subsp. enterica serovar typhimurium
[1] = Permeability of the compound; format: ADME; details: not told; read-out: permeability
[2] = Clearance in rat; format: ADME, organism-based; details: in vivo
hERG (KCNH2) = hERG (KCNH2) (Homo sapiens, UniProt Q12809); test: Inhibition of human ERG at 30 uM
Rattus norvegicus [3] = test: Toxicity in rat assessed as histopathological signs up to 500 mg/kg; format: organism-based; design: dose 500 mg/kg; details: in vivo
Mus musculus [4] = species: Mus musculus; details: C57BL6J, 1 to 3 mg/kg
Description: Inhibition of triglyceride synthesis in a lipid challenged C57BL6J mouse at 1 to 3 mg/kg, po coadministered with bolus of lipid

Liver microsomes = test: Stability of the compound in human liver microsomes at 10 uM after 30 mins in presence of glutathione ethyl ester; format: ADME, Microsome; details: 0.5 h
[5] = Lipophilicity, log D of the compound at pH 7.4; format: physicochemical; details: buffer
Rattus norvegicus [6] = test: Toxicity in rat assessed as clinical signs up to 500 mg/kg; format: organism-based; design: dose 500 mg/kg; details: in vivo
Rattus norvegicus [7] = test: Toxicity in rat assessed as hematological signs up to 500 mg/kg; format: organism-based; design: dose 500 mg/kg; details: in vivo
Mus musculus [8] = test: Inhibition of triglyceride synthesis in a lipid challenged C57BL6J mouse administered orally; format: functional; details: po

Sequence of hERG (KCNH2) (Q12809 whole entry): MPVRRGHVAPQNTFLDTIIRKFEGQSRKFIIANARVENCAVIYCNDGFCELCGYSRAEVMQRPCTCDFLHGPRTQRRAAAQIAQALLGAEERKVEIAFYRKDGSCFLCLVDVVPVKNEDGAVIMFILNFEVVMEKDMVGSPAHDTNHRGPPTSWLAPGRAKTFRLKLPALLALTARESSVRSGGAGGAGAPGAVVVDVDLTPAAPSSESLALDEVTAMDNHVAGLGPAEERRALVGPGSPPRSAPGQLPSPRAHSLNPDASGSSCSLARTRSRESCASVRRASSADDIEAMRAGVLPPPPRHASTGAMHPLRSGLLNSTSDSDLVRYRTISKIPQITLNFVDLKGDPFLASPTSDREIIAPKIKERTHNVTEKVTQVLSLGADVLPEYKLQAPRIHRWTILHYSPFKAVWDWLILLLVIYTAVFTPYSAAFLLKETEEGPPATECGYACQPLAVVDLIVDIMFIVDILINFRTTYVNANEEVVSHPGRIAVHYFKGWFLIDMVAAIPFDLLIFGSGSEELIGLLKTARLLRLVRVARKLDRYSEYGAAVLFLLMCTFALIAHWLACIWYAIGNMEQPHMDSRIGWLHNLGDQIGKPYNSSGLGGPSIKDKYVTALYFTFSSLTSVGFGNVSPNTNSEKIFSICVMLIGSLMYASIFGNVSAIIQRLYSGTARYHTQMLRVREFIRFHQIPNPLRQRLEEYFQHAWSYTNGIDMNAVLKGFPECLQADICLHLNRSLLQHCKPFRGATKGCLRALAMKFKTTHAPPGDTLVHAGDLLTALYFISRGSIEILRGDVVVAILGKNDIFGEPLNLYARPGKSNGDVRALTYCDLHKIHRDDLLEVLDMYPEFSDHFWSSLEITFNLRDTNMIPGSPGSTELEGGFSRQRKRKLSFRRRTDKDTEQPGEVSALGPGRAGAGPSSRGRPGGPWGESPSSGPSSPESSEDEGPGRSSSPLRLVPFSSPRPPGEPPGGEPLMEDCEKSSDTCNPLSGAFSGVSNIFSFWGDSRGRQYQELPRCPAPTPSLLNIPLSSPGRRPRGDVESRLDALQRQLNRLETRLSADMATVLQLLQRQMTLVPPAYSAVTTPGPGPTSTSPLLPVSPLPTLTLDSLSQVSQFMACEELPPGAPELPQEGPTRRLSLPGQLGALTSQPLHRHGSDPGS

SMILES	Activity (Salmonella typhimurium)	Papp [1]	clearance [2]	inhibition at 30 µM (hERG (KCNH2))	Activity (Rattus norvegicus [3])	inhibition (Mus musculus [4])	Stability (Liver microsomes)	logD [5]	Activity (Rattus norvegicus [6])	Activity (Rattus norvegicus [7])	ED50 (Mus musculus [8])
Nc1ncnc2c1O[C@@H](c1ccc([C@H]3CC[C@H](CC(=O)O)CC3)cc1)CO2	Non-toxic	7.7 ×10⁻⁶ cm/s	2 mL/min/kg	8%	Non-toxic	Active	Unstable	0.74	Non-toxic	Non-toxic	
Nc1ncnc2c1C(=O)N(c1ccc([C@H]3CC[C@H](CC(=O)O)CC3)cc1)CCO2 [PF-04620110]								-0.15			
CC1(C)Oc2ncnc(N)c2N=C1c1ccc([C@H]2CC[C@H](CC(=O)O)CC2)cc1											0.3 mg/kg
